From publication PMC5623949, “Exploiting the 2-Amino-1,3,4-thiadiazole Scaffold To Inhibit Trypanosoma brucei Pteridine Reductase in Support of Early-Stage Drug Discovery” (ACS Omega, 2017)
Like-named read-outs stand apart in the source and are kept apart here.

Assays:
TbPTR1 = target: T1, TbPTR1 (Trypanosoma brucei brucei, UniProt O76290); assay: biochemical; conditions: for inhibition at 50 µM: read-out: % Inhibition TbPTR1 at 50 μM; for IC50: dose-response 0.001-100 μM
T1 construct: made in house
T1 sequence (O76290 1-268): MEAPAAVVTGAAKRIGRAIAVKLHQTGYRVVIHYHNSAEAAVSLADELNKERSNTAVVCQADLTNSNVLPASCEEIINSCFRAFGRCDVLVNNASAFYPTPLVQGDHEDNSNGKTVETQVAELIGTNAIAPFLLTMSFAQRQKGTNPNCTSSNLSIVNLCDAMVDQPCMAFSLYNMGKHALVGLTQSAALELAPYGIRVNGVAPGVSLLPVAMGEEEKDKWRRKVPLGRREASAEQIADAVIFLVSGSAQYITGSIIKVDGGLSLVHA

[1] = system: T. b. brucei Lister 427 bloodstream forms; assay: In vitro activity against T. brucei (HTS SYBR Green I growth inhibition assay); assay type: cell-based, Trypanosoma brucei brucei; conditions: for inhibition at 50 µM: read-out: % Inhibition T. brucei at 50 μM
hERG = target: T2, hERG (Homo sapiens, UniProt Q12809); design: hERG inhibition liability assay
T2 construct: gene KCNH2

CYP1A2 = target: T3, CYP1A2 (Homo sapiens, UniProt P05177); assay: in vitro; design: cytochrome P450 isoform inhibition liability assay
T3 sequence (P05177 1-516): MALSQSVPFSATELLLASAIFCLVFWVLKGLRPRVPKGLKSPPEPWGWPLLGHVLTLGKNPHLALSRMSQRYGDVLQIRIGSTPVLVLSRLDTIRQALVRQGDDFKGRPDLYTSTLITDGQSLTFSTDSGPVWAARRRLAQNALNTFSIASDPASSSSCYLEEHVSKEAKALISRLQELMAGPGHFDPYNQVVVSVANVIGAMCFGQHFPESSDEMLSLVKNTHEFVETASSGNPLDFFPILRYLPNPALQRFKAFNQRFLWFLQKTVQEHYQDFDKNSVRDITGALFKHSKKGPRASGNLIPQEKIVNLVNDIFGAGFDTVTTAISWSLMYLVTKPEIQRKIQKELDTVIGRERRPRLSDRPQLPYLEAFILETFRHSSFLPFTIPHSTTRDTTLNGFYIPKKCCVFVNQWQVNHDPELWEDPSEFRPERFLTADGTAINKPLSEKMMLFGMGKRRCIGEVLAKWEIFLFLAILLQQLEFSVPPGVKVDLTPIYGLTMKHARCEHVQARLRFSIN

CYP2C19 = CYP2C19 (Homo sapiens, UniProt P33261); assay: in vitro; design: cytochrome P450 isoform inhibition liability assay
CYP2C9 = CYP2C9 (Homo sapiens, UniProt P11712); assay: in vitro; design: cytochrome P450 isoform inhibition liability assay
CYP2D6 = CYP2D6 (Homo sapiens, UniProt P10635); assay: in vitro; design: cytochrome P450 isoform inhibition liability assay
CYP3A4 = CYP3A4 (Homo sapiens, UniProt P08684); assay: in vitro; design: cytochrome P450 isoform inhibition liability assay
hDHFR = target: T4, hDHFR (Homo sapiens, UniProt P00374); assay: biochemical; design: human DHFR enzyme inhibition
T4 construct: gene DHFR
T4 sequence (P00374 1-187): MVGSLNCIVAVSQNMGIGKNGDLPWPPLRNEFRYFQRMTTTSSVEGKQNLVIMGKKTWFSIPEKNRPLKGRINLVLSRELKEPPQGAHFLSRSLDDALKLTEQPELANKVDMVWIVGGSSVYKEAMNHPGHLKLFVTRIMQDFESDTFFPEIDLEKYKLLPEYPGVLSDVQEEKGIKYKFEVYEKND
Method: Figure 10 Summary heat map of the in vitro assays to determine possible liability issues for all synthesized compounds. Assays were performed to assess inhibition of hERG and five CYP isoforms (1A2, 2C9, 2C19, 2D6, and 3A4), growth inhibition of A549 and W1-38 cell lines, and mitochondrial toxicity at 10 μM. The hDHFR inhibition was determined at 100 μM. The data, expressed as percentage values, were organized by adopting a color code for rapid and intuitive visualization. The ideal compound should have all tiles blue, indicating a safe toxicological profile for progressing into the development pipeline. The cells are colored from blue (100% of cell growth at the tested concentration) to red (0% of cell growth at the tested concentration) for A549 and W1-38 and from blue (0% of inhibitory activity at the tested concentration) to red (100% of inhibitory activity at the tested concentration) for CYP isoforms, hERG, hDHFR, and mitochondrial toxicity.

786-O = assay: cells; design: mitochondrial toxicity in 786-O renal carcinoma cells; conditions: Homo sapiens, 786-0; mitochondrial toxicity
in vitro [2] = assay: in vitro; design: cytotoxicity, per cent cell growth of A549 cells; conditions: human, a549 cells; read-out: % cell growth A549 at 10uM
in vitro [3] = assay: in vitro; design: cytotoxicity, per cent cell growth of WI-38 fibroblasts; conditions: human, wi-38 cells; read-out: % cell growth W1-38 at 10uM
[4] = Trypanosoma brucei, 50 μM, standard deviation within ±10% of the value

Sequence of CYP3A4 (P08684 whole entry, canonical isoform): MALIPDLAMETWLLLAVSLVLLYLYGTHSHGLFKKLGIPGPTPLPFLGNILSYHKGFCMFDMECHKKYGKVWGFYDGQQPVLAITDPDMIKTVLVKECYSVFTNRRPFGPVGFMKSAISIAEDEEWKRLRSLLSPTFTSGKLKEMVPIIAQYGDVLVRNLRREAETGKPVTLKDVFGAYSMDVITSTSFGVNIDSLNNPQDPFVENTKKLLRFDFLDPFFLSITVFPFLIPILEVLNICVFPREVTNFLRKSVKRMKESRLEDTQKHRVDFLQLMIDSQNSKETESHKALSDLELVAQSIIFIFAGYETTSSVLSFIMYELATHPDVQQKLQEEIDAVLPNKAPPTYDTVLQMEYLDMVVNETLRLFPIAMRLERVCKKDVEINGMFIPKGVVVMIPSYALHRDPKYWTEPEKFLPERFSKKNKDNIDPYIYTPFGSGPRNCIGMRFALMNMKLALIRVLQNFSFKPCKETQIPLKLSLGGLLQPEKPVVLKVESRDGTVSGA
T2 sequence (Q12809 whole entry): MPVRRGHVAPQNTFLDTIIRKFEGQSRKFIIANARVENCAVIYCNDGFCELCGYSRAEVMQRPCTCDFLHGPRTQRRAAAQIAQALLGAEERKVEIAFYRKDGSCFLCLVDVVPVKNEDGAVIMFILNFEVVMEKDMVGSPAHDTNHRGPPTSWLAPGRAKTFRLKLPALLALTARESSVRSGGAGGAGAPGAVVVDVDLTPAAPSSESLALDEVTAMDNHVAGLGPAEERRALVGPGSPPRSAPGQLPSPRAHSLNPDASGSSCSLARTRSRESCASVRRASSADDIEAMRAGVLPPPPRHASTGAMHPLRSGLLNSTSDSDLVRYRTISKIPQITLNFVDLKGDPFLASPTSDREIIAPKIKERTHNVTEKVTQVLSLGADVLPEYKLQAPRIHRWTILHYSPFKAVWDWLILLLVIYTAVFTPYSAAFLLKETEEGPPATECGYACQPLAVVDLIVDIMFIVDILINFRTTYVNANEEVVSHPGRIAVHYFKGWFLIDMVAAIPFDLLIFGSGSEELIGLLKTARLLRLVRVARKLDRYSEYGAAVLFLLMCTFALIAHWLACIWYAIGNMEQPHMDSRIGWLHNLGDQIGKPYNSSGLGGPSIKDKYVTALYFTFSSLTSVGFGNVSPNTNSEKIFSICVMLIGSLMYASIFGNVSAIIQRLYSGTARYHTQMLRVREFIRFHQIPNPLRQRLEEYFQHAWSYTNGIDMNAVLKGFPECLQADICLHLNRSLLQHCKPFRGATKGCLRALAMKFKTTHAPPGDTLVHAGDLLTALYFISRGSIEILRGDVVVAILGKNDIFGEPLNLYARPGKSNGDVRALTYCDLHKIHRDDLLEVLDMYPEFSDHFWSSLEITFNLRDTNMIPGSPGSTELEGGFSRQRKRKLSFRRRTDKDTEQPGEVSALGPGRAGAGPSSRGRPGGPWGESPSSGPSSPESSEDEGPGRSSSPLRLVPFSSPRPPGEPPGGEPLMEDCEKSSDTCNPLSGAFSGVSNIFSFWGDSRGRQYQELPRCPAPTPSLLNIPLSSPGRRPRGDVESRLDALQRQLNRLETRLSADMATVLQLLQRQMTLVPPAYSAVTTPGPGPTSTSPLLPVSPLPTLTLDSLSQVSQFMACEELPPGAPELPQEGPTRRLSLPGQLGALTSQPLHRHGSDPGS
Sequence of CYP2C9 (P11712 whole entry, canonical isoform): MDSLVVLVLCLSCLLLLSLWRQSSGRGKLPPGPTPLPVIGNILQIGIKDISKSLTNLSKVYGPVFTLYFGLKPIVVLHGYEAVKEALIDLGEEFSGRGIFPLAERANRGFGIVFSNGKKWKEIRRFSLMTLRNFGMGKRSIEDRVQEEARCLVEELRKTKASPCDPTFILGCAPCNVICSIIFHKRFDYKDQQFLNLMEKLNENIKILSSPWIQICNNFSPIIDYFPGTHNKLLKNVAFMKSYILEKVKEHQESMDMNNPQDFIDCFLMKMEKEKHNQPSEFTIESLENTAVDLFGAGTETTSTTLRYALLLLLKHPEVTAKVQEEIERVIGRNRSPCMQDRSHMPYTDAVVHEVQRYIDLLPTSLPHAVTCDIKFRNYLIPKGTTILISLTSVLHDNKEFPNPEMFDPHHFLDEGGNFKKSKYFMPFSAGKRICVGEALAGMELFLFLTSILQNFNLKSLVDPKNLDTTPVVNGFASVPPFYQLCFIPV
Sequence of CYP2D6 (P10635 whole entry, canonical isoform): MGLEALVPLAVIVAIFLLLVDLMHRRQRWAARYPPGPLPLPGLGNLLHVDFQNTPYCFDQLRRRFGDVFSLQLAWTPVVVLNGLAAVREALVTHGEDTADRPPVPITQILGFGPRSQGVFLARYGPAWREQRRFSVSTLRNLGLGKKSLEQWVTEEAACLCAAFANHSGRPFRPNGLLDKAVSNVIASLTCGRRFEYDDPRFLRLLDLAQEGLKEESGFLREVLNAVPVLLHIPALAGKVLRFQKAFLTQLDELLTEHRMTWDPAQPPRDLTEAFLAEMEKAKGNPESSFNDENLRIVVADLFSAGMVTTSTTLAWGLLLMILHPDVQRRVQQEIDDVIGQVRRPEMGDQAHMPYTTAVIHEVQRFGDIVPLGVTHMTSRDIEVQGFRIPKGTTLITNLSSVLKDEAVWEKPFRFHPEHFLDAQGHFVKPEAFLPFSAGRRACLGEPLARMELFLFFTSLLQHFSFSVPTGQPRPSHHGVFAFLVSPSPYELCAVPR
Sequence of CYP2C19 (P33261 whole entry, canonical isoform): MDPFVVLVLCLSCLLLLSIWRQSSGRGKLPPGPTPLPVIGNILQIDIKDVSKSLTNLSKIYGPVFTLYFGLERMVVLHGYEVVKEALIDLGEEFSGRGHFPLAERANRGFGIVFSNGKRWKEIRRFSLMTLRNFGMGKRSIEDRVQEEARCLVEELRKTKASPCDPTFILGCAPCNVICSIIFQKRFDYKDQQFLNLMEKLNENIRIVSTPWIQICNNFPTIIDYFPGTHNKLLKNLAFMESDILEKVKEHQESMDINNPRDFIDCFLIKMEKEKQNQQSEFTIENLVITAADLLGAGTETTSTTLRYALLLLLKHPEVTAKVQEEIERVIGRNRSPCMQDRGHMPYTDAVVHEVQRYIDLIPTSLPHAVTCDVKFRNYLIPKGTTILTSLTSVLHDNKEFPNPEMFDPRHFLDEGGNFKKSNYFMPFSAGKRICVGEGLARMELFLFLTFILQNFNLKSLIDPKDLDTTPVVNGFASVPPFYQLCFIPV

| Structure (SMILES) | inhibition at 50 µM (TbPTR1) | inhibition at 50 µM ([1]; Trypanosoma brucei) | inhibition at 10 µM (hERG) | inhibition at 10 µM (CYP1A2) | inhibition at 10 µM (CYP2C19) | inhibition at 10 µM (CYP2C9) | inhibition at 10 µM (CYP2D6) | inhibition at 10 µM (CYP3A4) | inhibition at 100 µM (hDHFR) | inhibition at 10 µM (786-O) | viability at 10 µM (in vitro [2]) | viability at 10 µM (in vitro [3]) | inhibition at 50 µM (TbPTR1; 50 μM compound) | inhibition at 50 µM [1, 4] | inhibition at 10 µM (hDHFR; 10 uM) | IC50 (TbPTR1) | % Inhibition TbPTR1 at 50 μM (TbPTR1; 50 μM compound) | % Inhibition T. brucei at 50 μM ([1]; 50 μM, standard deviation within ±10% of the value) | EC50 ([1]; Trypanosoma brucei, standard deviation within ±10% of the value, read-out: EC50 T. brucei) | inhibition at 25 µM (hDHFR; 25 uM) |
| --- | --- | --- | --- | --- | --- | --- | --- | --- | --- | --- | --- | --- | --- | --- | --- | --- | --- | --- | --- | --- |
| CN(C)CCc1nnc(N)s1 [3i] | 5.6 ± 0.6% | < 0% | 0.7 ± 2.8% | -3.2 ± 4.2% | -30.1 ± 15.1% | -13.5 ± 3.9% | -35.4 ± 5% | -14.3 ± 3.1% | 12% | -12.4 ± 3.4% | 143 ± 11.8% | 114 ± 22.2% | – | – | – | – | – | – | – | – |
| COc1cccc(OC)c1-c1nnc(N)s1 [1g] | – | – | 4.3 ± 2% | 8.9 ± 0.3% | -30.6 ± 12.9% | -5.6 ± 1.3% | -30.5 ± 5.6% | 13 ± 6.4% | 12% | -3.9 ± 2% | 149.9 ± 0.3% | 80.3 ± 6.8% | 14.1 ± 1.2% | 4.2% | – | – | – | – | – | – |
| Nc1nnc(Cc2ccccc2)s1 [3b] | – | – | 11.1 ± 5.2% | -10.2 ± 1.6% | -42.6 ± 5.5% | -20.4 ± 1.8% | -41.7 ± 3.9% | -23.7 ± 5.9% | 6% | -7.4 ± 11.1% | 125 ± 4.8% | 120 ± 1.7% | 8.1 ± 0.2% | < 0% | – | – | – | – | – | – |
| Nc1cccc(-c2ccc(-c3nnc(N)s3)cc2)c1 [2b] | – | – | 9.1 ± 4.4% | 44.6 ± 1.5% | -3.9 ± 13.3% | 1.9 ± 1% | -16.1 ± 6.6% | 32 ± 3.7% | – | -1 ± 2.2% | 137 ± 11.1% | 73.4 ± 2.5% | 16.2 ± 0.5% | 33.4% | 17% | – | – | – | – | – |
| Nc1nnc(NCc2ccc(Cl)c(Cl)c2)s1 [4e] | – | – | 75.6 ± 4.4% | 29.1 ± 3.4% | 36.8 ± 0.9% | 17.6 ± 0.9% | 99 ± 0.6% | 27.4 ± 6.8% | 24% | 3.6 ± 8.5% | 106 ± 2.7% | 68.5 ± 18.8% | 48.5 ± 2.1% | < 0% | – | 31 µM | – | – | – | – |
| N#Cc1ccc(CNc2nnc(N)s2)cc1 [4h] | – | – | 82.6 ± 11.8% | 17.1 ± 4.4% | -2 ± 6.3% | 15 ± 1.4% | 62.4 ± 2.9% | 7.2 ± 12.7% | 17% | -0.1 ± 9.4% | 105 ± 2.3% | 107 ± 24.9% | 34.6 ± 3% | < 0% | – | 70 µM | – | – | – | – |
| COc1ccccc1-c1nnc(N)s1 [1h] | – | – | 5.2 ± 6.6% | 21.5 ± 4.6% | -20.9 ± 16.1% | -32.3 ± 3.6% | -31.5 ± 9.5% | -9.4 ± 8% | 14% | -7.8 ± 2.6% | 126 ± 17.3% | 129 ± 10.3% | 24.1 ± 1% | < 0% | – | – | – | – | – | – |
| COC(=O)C(Cc1ccccc1)Nc1nnc(N)s1 (centres unmarked) [4p, Methyl 2G((5GaminoG1,3,4GthiadiazolG2Gyl)amino)G3Gphenylpropanoate] | – | – | 28.7 ± 10.5% | -1.5 ± 4.3% | -27.4 ± 13.1% | -10.9 ± 3% | 47.4 ± 3.3% | -12.5 ± 6.8% | 9% | 1.72 ± 5.2% | 126 ± 3.5% | 114 ± 12.7% | 3.9 ± 0.3% | 0.4% | – | – | – | – | – | – |
| Nc1nnc(-c2cc(O)c(O)c(O)c2)s1 [1f, 3′,4′,5′-trihydroxy-phenyl-1,3,4-thiadiazole] | – | – | 3.3 ± 2.2% | 71.4 ± 6.9% | 67.4 ± 7.3% | 38.2 ± 5.4% | -6 ± 7.3% | 67.7 ± 3.1% | 31% | -9.6 ± 7.9% | 118 ± 3.1% | 111 ± 12.9% | 44.9 ± 0.9% | – | – | 41 µM | did not show inhibition | 100.0% | 1 µM | – |
| Nc1nnc(-c2cccc(-c3ccccc3)c2)s1 [2c] | – | – | 83.7 ± 2.5% | 101 ± 1.4% | 65.1 ± 6.8% | 24.1 ± 0.4% | 48.2 ± 2.3% | 59.5 ± 3.7% | – | 0% | 115 ± 5.3% | 87.2 ± 13.8% | 25.2 ± 1.4% | 14.4% | – | – | – | – | – | 23% |
